Test results from BigSolDB 2.1.

Cc1nc2n(c(=O)c1CCN1CCC(c3noc4cc(F)ccc34)CC1)CCCC2
solubility (mole fraction)
Settings | 278.15 K | 283.15 K | 288.15 K | 293.15 K | 298.15 K | 303.15 K | 308.15 K | 313.15 K | 318.15 K | 323.15 K
in acetone | 0.00085 | 0.00095 | 0.00127 | 0.00143 | 0.00175 | 0.00219 | 0.00284 | 0.00336 | 0.00417 | 0.00507
in cumene | 0.00122 | 0.00147 | 0.00207 | 0.00219 | 0.0026 | 0.00309 | 0.00376 | 0.00481 | 0.00552 | 0.0066
in ethanol | 0.00096 | 0.00108 | 0.00131 | 0.00153 | 0.00201 | 0.00248 | 0.0033 | 0.00415 | 0.0051 | 0.00677
in ethyl acetate | 0.00116 | 0.00128 | 0.00167 | 0.00185 | 0.00216 | 0.00263 | 0.00331 | 0.00397 | 0.00485 | 0.0058
in isopropanol | 0.00036 | 0.00046 | 0.0006 | 0.0007 | 0.00103 | 0.00136 | 0.00203 | 0.00253 | 0.0032 | 0.00447
in methanol | 0.00202 | 0.0023 | 0.00272 | 0.00329 | 0.00396 | 0.00487 | 0.00615 | 0.0077 | 0.0099 | 0.0128
in n-butanol | 0.00152 | 0.00173 | 0.0022 | 0.00263 | 0.00347 | 0.00443 | 0.00593 | 0.00753 | 0.00963 | 0.0124
in n-propanol | 0.00139 | 0.00155 | 0.00197 | 0.00238 | 0.00305 | 0.00381 | 0.00517 | 0.00651 | 0.00839 | 0.0109
in toluene | 0.0038 | 0.00418 | 0.00521 | 0.00559 | 0.00667 | 0.008 | 0.00998 | 0.0117 | 0.014 | 0.0167
